Assay results as given in ChEMBL document CHEMBL1128418, “Synthesis and activity against multidrug resistance in Chinese hamster ovary cells of new acridone-4-carboxamides” (J Med Chem, 1995).

Legend:
[1] = test system: CHRC5 cell line; assay: Reversal of sensitivity of multidrug resistant chinese hamster ovary cell line CHRC/5 expressed as concentration that restores 50% of cytotoxic activity of 5 ug/mL toward doxorubicin; type: functional, cell-based; settings: Cricetulus griseus
[2] = test system: CHRC5 cell line; assay: Reversal of sensitivity of multidrug resistant chinese hamster ovary cell line CHRC/5 expressed as concentration that restores 50% of cytotoxic activity of 5 ug/mL toward doxorubicin; Not active; type: functional, cell-based, Cricetulus griseus
[3] = test system: CHRC5 cell line; assay: Reversal of sensitivity of multidrug resistant chinese hamster ovary cell line CHRC/5 expressed as concentration that restores 50% of cytotoxic activity of 5 ug/mL toward doxorubicin; Toxic alone to cells at 5 uM; type: functional, cell-based, Cricetulus griseus

Row | Structure (SMILES) | EC50 ([1]; read-out: EC50) | other results
1 | COc1ccc(CN(C)CCCc2ccc(NC(=O)c3cccc4c(O)c5ccccc5nc34)cc2)cc1OC | 60 nM | 
2 | COc1ccc(CN(C)CCc2ccc(NC(=O)c3cccc4c(O)c5cccc(OC)c5nc34)cc2)cc1OC | 21 nM | 
3 | COc1ccc(CCN(C)CCOc2ccc(NC(=O)c3cccc4c(=O)c5ccccc5oc34)cc2)cc1OC | 180 nM | 
4 | COc1ccc(CCN(C)CCOc2ccc(NC(=O)c3cccn4c(=O)c5ccccc5nc34)cc2)cc1OC | 210 nM | 
5 | COc1ccc(CN(C)CCc2ccc(NC(=O)c3cccc4c(O)c5ccccc5nc34)cc2)cc1OC | 27 nM | 
6 | COc1ccc(CN(C)CCc2ccc(NC(=O)c3cccc4c(O)c5cccc([N+](=O)[O-])c5nc34)cc2)cc1OC | 195 nM | 
7 | COc1ccc(CN(C)CCc2ccc(NC(=O)c3cccc4c(O)c5cccc(F)c5nc34)c(C)c2)cc1OC | 88 nM | 
8 | COc1cc2c(cc1OC)CN(CCc1ccccc1NC(=O)c1cccc3c(O)c4cccc(OC)c4nc13)CC2 | 305 nM | 
9 | COc1ccc(CCN(C)CCCN2CCN(C(=O)c3cccc4c(O)c5ccccc5nc34)CC2)cc1OC |  | EC50 [2]: Not Active
10 | CSc1ccc(CN(C)CCOc2ccc(NC(=O)c3cccc4c(O)c5ccccc5nc34)cc2)cc1 | 690 nM | 
11 | COc1ccc(CN(C)CCOc2ccc(NC(=O)c3cccc4c(O)c5cccc(OC)c5nc34)c(C)c2)cc1OC | 280 nM | 
12 | COc1ccc(CN(C)C/C=C/c2ccc(NC(=O)c3cccc4c(O)c5ccccc5nc34)cc2)cc1OC | 270 nM | 
13 | COc1ccc(CN(C)CCCc2cccc(NC(=O)c3cccc4c(O)c5cccc(OC)c5nc34)c2)cc1OC | 45 nM | 
14 | COc1ccc(CCN(C)CCOc2ccc(NC(=O)c3cccc4c(=O)c5ccccc5sc34)cc2)cc1OC | 90 nM | 
15 | CCN(CCOc1ccc(NC(=O)c2cccc3c(=O)c4ccccc4[nH]c23)cc1)Cc1ccccc1 | 110 nM | 
16 | COc1ccc(CCN(C)CCOc2ccc(NC(=O)c3cccc4c3Oc3ccccc3O4)cc2)cc1OC | 460 nM | 
17 | O=C(Nc1ccc(OCCCN2CCc3ccccc3C2)cc1)c1cccc2c(=O)c3ccccc3[nH]c12 | 210 nM | 
18 | CN(CCOc1ccc(NC(=O)c2cccc3c(=O)c4ccccc4[nH]c23)cc1)Cc1ccc(F)cc1 | 930 nM | 
19 | CCN(CC)CCOc1ccc(NC(=O)c2cccc3c(=O)c4ccccc4[nH]c23)cc1 |  | EC50 [2]: Not Active
20 | COc1ccc(CCN(C)CCOc2ccc(NC(=O)c3cccc4c3C(=O)c3ccccc3C4=O)cc2)cc1OC | 1500 nM | 
21 | CN(CCOc1ccc(NC(=O)c2cccc3c(=O)c4ccccc4[nH]c23)cc1)Cc1ccc2c(c1)OCO2 | 550 nM | 
22 | COc1ccc(CN(C)CCOc2ccc(NC(=O)c3cccc4c(=O)c5ccccc5[nH]c34)cc2)cc1 | 650 nM | 

Row | Structure (SMILES) | EC50 ([1]; read-out: EC50) | other results
23 | COc1ccc(CCN(C)CCOc2ccc(NC(=O)c3cccc4c3Nc3ccccc3S4)cc2)cc1OC | 180 nM | 
24 | CN(CCOc1ccc(NC(=O)c2cccc3c(=O)c4ccccc4[nH]c23)cc1)Cc1ccccc1 | 720 nM | 
25 | Cc1ccc(CN(C)CCOc2ccc(NC(=O)c3cccc4c(=O)c5ccccc5[nH]c34)cc2)cc1 | 240 nM | 
26 | COc1ccccc1CN(C)CCOc1ccc(NC(=O)c2cccc3c(=O)c4ccccc4[nH]c23)cc1 | 510 nM | 
27 | COc1ccc(CNCCCOc2ccc(NC(=O)c3cccc4c(=O)c5ccccc5[nH]c34)cc2)cc1OC | 525 nM | 
28 | COc1cc2c(cc1OC)CN(CCCOc1ccc(NC(=O)c3cccc4c(=O)c5ccccc5[nH]c34)cc1)CC2 | 50 nM | 
29 | CN(CCOc1ccc(NC(=O)c2cccc3c(=O)c4ccccc4[nH]c23)cc1)Cc1ccc(C(F)(F)F)cc1 | 800 nM | 
30 | COc1cc2c(cc1OC)CN(CCc1ccc(NC(=O)c3cccc4c(=O)c5cccc(OC)c5[nH]c34)cc1)CC2 | 21 nM | 
31 | COc1ccc(CN(C)Cc2ccc(NC(=O)c3cccc4c(O)c5ccccc5nc34)cc2)cc1OC | 370 nM | 
32 | COc1ccc(CN(C)CCOc2ccc(NC(=O)c3cccc4c(=O)cc(-c5ccccc5)[nH]c34)cc2)cc1OC | 330 nM | 
33 | COc1ccc(CCN(C)CCOc2ccc(NC(=O)c3cccc4c(Cl)c5ccccc5nc34)cc2)cc1OC | 660 nM | 
34 | COc1ccc(CCN(C)CCCOc2ccc(NC(=O)c3cccc4c(=O)c5ccccc5[nH]c34)cc2)cc1OC | 90 nM | 
35 | COc1ccc(CCN(C)CCCC(C#N)(c2ccc(OC)c(OC)c2)C(C)C)cc1OC (stereo not given) |  | EC50 [1]: 3000 nM
36 | COc1ccc(CN(C)CCc2ccccc2NC(=O)c2cccc3c(O)c4cccc(OC)c4nc23)cc1OC | 465 nM | 
37 | COc1cc2c(cc1OC)CN(CCCc1cccc(NC(=O)c3cccc4c(O)c5cccc(OC)c5nc34)c1)CC2 | 48 nM | 
38 | COc1cc2c(cc1OC)CN(CCc1cccc(NC(=O)c3cccc4c(O)c5cccc(OC)c5nc34)c1)CC2 | 155 nM | 
39 | COc1ccc(CN(C)CCc2ccc(NC(=O)c3cccc4c(O)c5cccc(C)c5nc34)cc2)cc1OC | 21 nM | 
40 | COc1ccc(CN(C)CCCOc2ccc(NC(=O)c3cccc4c(O)c5cccc(F)c5nc34)c(C)c2)cc1OC | 63 nM | 
41 | COc1ccc(CN(C)CCCSc2ccc(NC(=O)c3cccc4c(O)c5ccccc5nc34)cc2)cc1OC | 45 nM | 
42 | COc1ccc(CN(C)CCc2ccc(NC(=O)c3cccc4c(O)c5cccc(F)c5nc34)cc2)cc1OC | 18 nM | 
43 | COc1ccc(CN(C)C/C=C/Cc2ccc(NC(=O)c3cccc4c(O)c5ccccc5nc34)cc2)cc1OC | 150 nM | 
44 | COc1ccc(CN(C)CCCCc2ccc(NC(=O)c3cccc4c(O)c5cccc(N)c5nc34)cc2)cc1OC | 177 nM | 

Row | Structure (SMILES) | EC50 ([1]; read-out: EC50) | other results
45 | CN(CCCCCCCCNC(=O)c1cccc2c(O)c3ccccc3nc12)Cc1ccccc1 | 1100 nM | 
46 | COc1ccc(CN(C)CCOc2ccc(NC(=O)c3cccc4nc5ccccc5nc34)cc2)cc1OC | 330 nM | 
47 | COc1cc(CCN(C)Cc2ccc(OC)c(OC)c2)ccc1NC(=O)c1cccc2c(O)c3cccc(F)c3nc12 | 21 nM | 
48 | COc1ccc(CCN(C)CCCN2CCC(NC(=O)c3cccc4c(=O)c5ccccc5[nH]c34)CC2)cc1OC |  | EC50 [2]: Not Active
49 | COc1ccc(CCN(C)CCOc2ccc(NC(=O)c3cccc4cc5ccccc5nc34)cc2)cc1OC |  | EC50 [3]: Toxic
50 | COc1ccc(CN(C)CCOc2ccc(NC(=O)c3cccc4c(O)c5ccccc5nc34)cc2)cc1OC | 90 nM | 
51 | COc1ccc(CN(C)CCCCc2ccc(NC(=O)c3cccc4c(O)c5ccccc5nc34)cc2)cc1OC | 30 nM | 
52 | COc1cc(CCCN(C)Cc2ccc(OC)c(OC)c2)ccc1NC(=O)c1cccc2c(O)c3cccc(OC)c3nc12 | 37 nM | 
53 | COc1ccc(CN(C)CCCOc2ccc(NC(=O)c3cccc4c(O)c5ccccc5nc34)cc2)cc1OC | 36 nM | 
54 | COc1cc(OC)c2nc3c(C(=O)Nc4ccc(CCN(C)Cc5ccc(OC)c(OC)c5)cc4)cccc3c(O)c2c1 | 22 nM | 
55 | COc1cc(OCCCN(C)Cc2ccc(OC)c(OC)c2)ccc1NC(=O)c1cccc2c(O)c3cccc(F)c3nc12 | 30 nM | 
56 | COc1cc(OCCCN(C)Cc2ccc(OC)c(OC)c2)ccc1NC(=O)c1cccc2c(O)c3cccc(C)c3nc12 | 40 nM | 
57 | CCc1cc(OCCCN(C)Cc2ccc(OC)c(OC)c2)ccc1NC(=O)c1cccc2c(O)c3cccc(F)c3nc12 | 90 nM | 
58 | COc1ccc(CN(C)CCCc2ccccc2NC(=O)c2cccc3c(O)c4cccc(OC)c4nc23)cc1OC | 585 nM | 
59 | COc1cc(CCCN(C)Cc2ccc(OC)c(OC)c2)ccc1NC(=O)c1cccc2c(O)c3cccc(F)c3nc12 | 43 nM | 
60 | COc1ccc(CN(C)CCc2ccc(NC(=O)c3cccc4c(O)c5cccc(C)c5nc34)c(C)c2)cc1OC | 80 nM | 
61 | COc1ccc(CN(C)CCCOc2ccc(NC(=O)c3cccc4c(O)c5cccc(C)c5nc34)c(C)c2)cc1OC | 93 nM | 
62 | COc1ccc(CN(C)CCc2ccc(NC(=O)c3cccc4c(=O)c5ccccc5n(C)c34)cc2)cc1OC | 210 nM | 
63 | COc1ccc(CN(C)CCCCCc2ccc(NC(=O)c3cccc4c(O)c5ccccc5nc34)cc2)cc1OC | 150 nM | 
64 | COc1cc2c(cc1OC)CN(CCc1ccc(NC(=O)c3cccc4c(O)c5cccc(F)c5nc34)cc1)CC2 | 33 nM | 
65 | COc1ccc2nc3c(C(=O)Nc4ccc(CCCCN(C)Cc5ccc(OC)c(OC)c5)cc4)cccc3c(O)c2c1 | 120 nM | 
